Measured values: US12036210B2, “Heteroaryl substituted beta-hydroxyethylamines for use in treating hyperglycaemia” (ATROGI AB, priority 2017, dated 2024)
Where a name gives a salt, the structure may show the parent alone.

How the values were obtained:
L6-myotubes = experiment: Glucose uptake (3H-2-deoxy-glucose) in differentiated L6-myotubes; format: cell-based; details: agonist final concentration 1×10^−5, 50 nM 3H-2-deoxy-glucose, relative to isoproterenol, read-out: Biological example 1 (glucose uptake, activity compared to that of isoproterenol)
Protocol: (§1) L6-myoblasts were grown in Dulbecco's Modified Eagle's Medium (DMEM) containing 4.5 g/I glucose supplemented with 10% fetal bovine serum, 2 mM L-Glutamine, 50 U/ml penicillin, 50 μg/ml streptomycin and 10 mM HEPES. Cells were plated at 1×10^5 cells per ml in 24-well plates. After reaching 90% confluence the cells were grown in medium containing 2% FBS for 7 days where upon cells differentiated into myotubes.
Differentiated L6-myotubes were serum-starved over night in medium containing 0.5% fatty-acid free BSA and stimulated with agonist, final concentration 1×10^−5. After 1 h 40 min cells were washed with warm, glucose free medium or PBS and another portion of agonist was added to glucose free medium. After 20 min the cells were exposed to 50 nM ^3H-2-deoxy-glucose for another 10 min before washed in ice cold glucose free medium or PBS and lysed in 0.2 M NaOH for 1 h in 60° C.

[1] = system: Intracellular cAMP levels; experiment: Measurement of intracellular cAMP levels in differentiated L6 cells (alpha screen cAMP kit); format: cell-based; details: Rattus norvegicus, L6, 0.25 h, agonist final concentration 1×10^−5 for 15 min, 1 mM IBMX, relative to isoproterenol, read-out: Biological example 2 (intracellular cAMP levels, activity compared to that of isoproterenol)
Protocol: as §1
Differentiated cells were serum-starved over night and stimulated with agonist, final concentration 1×10^−5, for 15 min in stimulation buffer (HBSS supplemented with 1% BSA, 5 mM HEPES and 1 mM IBMX, pH 7.4) The medium was then aspirated and to end the reaction 100 μL of 95% EtOH was added to each well of a 24-well plate and cells were kept in −20° C. over night. The EtOH was let to evaporate and 500 μL of lysis buffer (1% BSA, 5 mM HEPES and 0.3% Tween-20, pH 7.4) was added to each well before put in −80° C. for 30 min and then kept in −20° C. Intracellular cAMP levels were detected using an alpha screen cAMP kit (6760635D from Perkin Elmer). The activity for each compound is compared to that of isoproterenol.

Compound | Emax (L6-myotubes) [%] | Emax [1] [%]
CCCCNC[C@H](O)c1csc(N)n1 [Example 1, (S)-1-(2-Aminothiazol-4-yl)-2-(butylamino)ethan-1-ol hydrochloride] | 25 to 50 | < 25
CCCCNCC(O)c1cccnc1 (stereo not drawn) [Example 7, 2-(Butylamino)-1-(pyridin-3-yl)ethan-1-ol] | 50 to 75 | < 25
CC(C)(C)NCC(O)c1ccncc1O (stereo not drawn) [Example 14, 4-(2-(tert-Butylamino)-1-hydroxyethyl)pyridin-3-ol hydrochloride] | > 75 | < 25
CCCCNCC(O)c1ccncc1 (stereo not drawn) [Example 6, 2-(Butylamino)-1-(pyridin-4-yl)ethan-1-ol] | 25 to 50 | < 25
CC(C)(C)NC[C@H](O)c1ncccc1Cl [Example 20, (S)-2-(tert-Butylamino)-1-(3-chloropyridin-2-yl)ethan-1-ol dihydrochloride] | 25 to 50 | < 25
CCCCNCC(O)c1ccc(=O)[nH]c1 (stereo not drawn) [Example 3, 5-(2-(Butylamino)-1-hydroxyethyl)pyridin-2(1H)-one] | 25 to 50 | < 25
CCCCNC[C@H](O)c1cnc(NC(=O)C(C)C)s1 [Example 8, (S)—N-(5-(2-(Butylamino)-1-hydroxyethyl)thiazol-2-yl)isobutyramide] | 25 to 50 | < 25
CC(C)(C)NC[C@H](O)c1cncc(Cl)c1 [Example 19, (R)-2-(tert-Butylamino)-1-(5-chloropyridin-3-yl)ethan-1-ol] | > 75 | < 25
CC(C)(C)NC[C@H](O)c1ccncc1F [Example 18, (R)-2-(tert-Butylamino)-1-(3-fluoropyridin-4-yl)ethan-1-ol] | 25 to 50 | < 25
CCCCNC[C@H](O)c1cnc(N)nc1 [Example 11, (R)-1-(2-Aminopyrimidin-5-yl)-2-(butylamino)ethan-1-ol] | 50 to 75 | < 25
CCCCNC[C@H](O)c1cnc(NC(=O)C(C)C)nc1 [Example 10, (R)—N-(5-(2-(Butylamino)-1-hydroxyethyl)pyrimidin-2-yl)isobutyramide hydrochloride] | 50 to 75 | < 25
CC(C)(C)NC[C@H](O)c1ccc(F)cn1 [Example 16, (S)-2-(tert-Butylamino)-1-(5-fluoropyridin-2-yl)ethan-1-ol] | 50 to 75 | < 25
CCCCNC[C@H](O)c1ccnc(N)n1 [Example 5, (S)-1-(2-Aminopyrimidin-4-yl)-2-(butylamino)ethan-1-ol] | 25 to 50 | < 25
CC(C)(C)NC[C@H](O)c1ccc(Cl)cn1 [Example 21, (S)-2-(tert-Butylamino)-1-(5-chloropyridin-2-yl)ethan-1-ol dihydrochloride] | 25 to 50 | < 25
CCCCNC[C@H](O)c1csc(C(F)(F)F)n1 [Example 2, (S)-2-(Butylamino)-1-(2-(trifluoromethyl)thiazol-4-yl)ethan-1-ol hydrochloride] | 25 to 50 | < 25
CCCCNCC(O)c1cc[nH]c(=O)c1 (stereo not drawn) [Example 4, 4-(2-(Butylamino)-1-hydroxyethyl)pyridin-2(1H)-one acetate] | 50 to 75 | < 25
CC(C)(C)NC[C@H](O)c1cncc(F)c1 [Example 17, (R)-2-(tert-Butylamino)-1-(5-fluoropyridin-3-yl)ethan-1-ol] | > 75 | 25 to 50
Cn1ccc([C@@H](O)CNC(C)(C)C)cc1=O [Example 15, (R)-4-(2-(tert-Butylamino)-1-hydroxyethyl)-1-methylpyridin-2(1H)-one] | > 75 | < 25
CCCCNC[C@H](O)c1cnc(N)s1 [Example 9, (S)-1-(2-Aminothiazol-5-yl)-2-(butylamino)ethan-1-ol dihydrochloride] | 25 to 50 | < 25
CC(C)(C)NC[C@H](O)c1ccc(O)cn1 [Example 12, (S)-6-(2-(tert-Butylamino)-1-hydroxyethyl)pyridin-3-ol] | 50 to 75 | < 25
CC(C)(C)NC[C@H](O)c1cncc(O)c1 [Example 13, (R)-5-(2-(tert-Butylamino)-1-hydroxyethyl)pyridin-3-ol dihydrochloride] | > 75 | < 25
